# Assays:
# astrocytes = assay: LPS-stimulated ATP release by astrocytes; assay type: cell-based, rat; conditions: 5 or 50 μM, LPS stimulation, FIG. 15A
# Method: (§1) Cortical microglia/astrocytes mechanically dissociated from decapitated postnatal P2-P4 rat pups (CD strain) were seeded on P75 flasks (1 brain per flask) and cultured at 37° C., 5% CO2 for 10-20 days using DMEM media supplemented with 10% FBS and 1% pen/strep. On Day 10, microglia were collected by gently shaking and washing and purify by passing through 20 μm cell strainer and centrifugation.
# (§2) Re-suspended microglia were counted and plated onto poly-D-lysine coated 96-well culture plate at a density of 80,000 cells/well. Dislodged the remaining astrocytes (enriched astrocytes) and plated onto poly-D-lysine coated 96-well culture plate at a density of 50,000 cells/well. Overnighted microglia and/or astrocytes were treated with the PANX-1 blockers of the invention (5 or 50 μM), vehicle or control (carbenoxolone, CBX) and subjected to lipopolysaccharide stimulation. Extracellular ATP was assessed by multilabel plate reader Envision (ultrasensitive luminescence) using CellTiter-Glo (Promega) kit.
# microglial cells = assay: LPS-stimulated ATP release by microglial cells; assay type: cell-based, rat; conditions: 5 or 50 μM, LPS stimulation, FIG. 15B
# Method: as §1, §2
# Tg mice = conditions: AD model, acute inhibition; cited from earlier work
# mice [1] = conditions: EAE MS model in mice; cited from earlier work
# mice [2] = conditions: administered before naloxone; cited from earlier work
# [3] = test system: human cortical brain tissue slices; conditions: cited from earlier work
# mice [4] = conditions: acute; cited from earlier work
# human PANX1 channels = biological target: T1, human PANX1 channels (Homo sapiens, UniProt Q96RD7); assay: Whole cell patch clamp assessment of PANX1 blockade on HEK293 cells stably expressing human PANX1 channels; assay type: cell-based; conditions: n=3
# T1 construct: expressed in transfected cells; host or cells: HEK293
# Method: The assessment of PANX1 blockade was assessed on HEK293 cells stably expressing human PANX1 channels, as previously described by Xu et al (2012). Briefly, wild type cells were seeded in six-well plates and 12-16 hours later, 60-70% confluent cells were transfected with the plasmid encoding hPANX1 using calcium phosphate. After 48 hours post-transfection, geneticin (G418), 0.8 mg/ml in fresh medium, was added to the cells to select for transfected clones and the medium was changed every other day. Once confluent, cells were transferred into flasks and maintained in medium containing G418 (0.8 mg/ml) for a total of 4 weeks from the transfection date.
# To validate those cells as a tool to screen potential PANX1 inhibitors a number of known PANX1 inhibitors were assessed by whole cell patch clamp and the voltage/current diagrams compared to current literature. The pipette solution was 151 mM […], 10 mM HEPES, 10 mM EGTA, 3 mM MgCl2. Cells were maintained in normal extracellular solution (NES: 140 mM NaCl, 5 mM KCl, 2 mM CaCl2, 1 mM MgCl2, 10 mM D-glucose, 10 mM HEPES, pH 7.3). Voltage ramps of 1 s duration between −80 mV and +80 mV were applied at 5 s intervals. Opening of Panx1 channel was induced by hypotonic shock, by replacing the isotonic extracellular solution (310 mOsml/l) with hypotonic extracellular solution (198 mOsml/l).
# CRC cells = conditions: cited from earlier work
# T1 sequence (Q96RD7 whole entry): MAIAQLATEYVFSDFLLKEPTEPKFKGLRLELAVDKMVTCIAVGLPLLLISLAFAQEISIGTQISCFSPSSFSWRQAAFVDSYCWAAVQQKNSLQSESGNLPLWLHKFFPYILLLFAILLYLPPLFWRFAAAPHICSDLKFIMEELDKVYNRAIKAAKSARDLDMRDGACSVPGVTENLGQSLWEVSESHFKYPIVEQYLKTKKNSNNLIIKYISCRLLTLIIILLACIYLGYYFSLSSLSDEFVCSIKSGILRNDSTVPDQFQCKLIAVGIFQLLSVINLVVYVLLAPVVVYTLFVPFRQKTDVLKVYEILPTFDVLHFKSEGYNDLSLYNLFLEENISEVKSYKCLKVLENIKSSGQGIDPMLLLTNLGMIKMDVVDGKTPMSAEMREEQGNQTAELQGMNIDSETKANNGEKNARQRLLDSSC
smiles,measurement,setting,value
N[C@@H]1[C@H]2CN(c3nc4c(cc3F)c(=O)c(C(=O)O)cn4-c3cc(-c4nnn[nH]4)ccc3Cl)C[C@@H]12 [CMPD 053],release of ATP by astrocytes,astrocytes,prevented
same,release of ATP by microglial cells,microglial cells,prevented
CCCN(CCC)S(=O)(=O)c1ccc(C(=O)O)cc1 [Probenecid],excitatory synaptic defects,Tg mice,significantly reduced excitatory synaptic defects
same,clinical symptoms (disease score),mice [1],reduced clinical symptoms
same,withdrawal behaviours,mice [2],markedly reduced
same,ictal discharges,[3],blocked ictal discharges
O=C(O)c1ccn2c(n1)nc1ccc(Cl)cc12 [CMPD054],release of ATP by astrocytes,astrocytes,prevented
same,release of ATP by microglial cells,microglial cells,prevented
"CC(=O)S[C@@H]1CC2=CC(=O)CC[C@]2(C)[C@H]2CC[C@@]3(C)[C@@H](CC[C@@]34CCC(=O)O4)[C@H]12 [Spirolactone, Spironolactone]",blood pressure,mice [4],acutely lowers blood pressure
same,inhibitory effect on PANX1,"human PANX1 channels; at 3, 10, or 30 μM",inhibitory effect
O=C(O)c1ccc2c(c1)c(C(=O)O)cn2CCCc1ccccc1 [CMPD043],release of ATP by astrocytes,astrocytes,prevented
same,release of ATP by microglial cells,microglial cells,prevented
CC1CCCC(n2cnc3c(N4CCCC4C)ncnc32)O1 (stereo not shown) [CMPD019],release of ATP by astrocytes,astrocytes,prevented
same,release of ATP by microglial cells,microglial cells,prevented
OC(c1cc(C(F)(F)F)nc2c(C(F)(F)F)cccc12)C1CCCCN1 (stereo not shown) [mefloquine],withdrawal behaviours,mice [2],markedly reduced
same,growth arrest and apoptosis of CRC cells,"CRC cells; CRC cells harboring phosphorylated p65, in culture and in mice",induced growth arrest and apoptosis
same,NF-κB inhibition,CRC cells; colorectal cancer cells,NF-κB inhibitor
same,ictal discharges,[3],blocked ictal discharges
CC1(C)[C@@H](OC(=O)CCC(=O)O)CC[C@]2(C)[C@H]3C(=O)C=C4[C@@H]5C[C@@](C)(C(=O)O)CC[C@]5(C)CC[C@@]4(C)[C@]3(C)CC[C@@H]12 [Carbenoxolone],inhibitory effect on PANX1,human PANX1 channels; at 50 μM,inhibitory effect
